Results on 12 molecules are retold here after article PMC10584170, “Machine learning-based phenotypic imaging to characterise the targetable biology of Plasmodium falciparum male gametocytes for the development of transmission-blocking antimalarials” (PLOS Pathogens, 2023).

The structures appear in SMILES notation.

The test system of assay [1] is P. falciparum male gametocytes. The assay can be described thus: P. falciparum Dual Gamete Formation Assay (PfDGFA), male readout (exflagellation). The class given is cell-based, Plasmodium falciparum NF54. Conditions: for % inhibition male (individual replicates) R1: replicate R1; for % inhibition male (individual replicates) R3: replicate R3; for % inhibition male (individual replicates) R4: replicate R4; for Average inhibition male (%): average of replicates; for Activity: hit = >50% inhibition in male or female readout in at least 3 replicates, 0 = no class assigned. How it is done: P. falciparum NF54 (originally isolated from an imported malaria case in the Netherlands in the 1980s; BEI Resources, cat. No. MRA-1000) strain asexual parasites were maintained between 0.3–5% parasitaemia by regular passage in complete culture medium (RPMI supplemented with 25 mM HEPES, 50 μg ml^−1 hypoxanthine, 4.8 g l^−1 NaHCO3, 2mM L-glutamine, 5% pooled type AB serum, 0.5% Albumax II (Gibco)) at 4% haematocrit in washed whole blood (National Blood and Transfusion Service or Centro de Transfusiones de la Comunidad de Madrid CTCM) under a 1% O2/3% CO2/96% N2 environment. Gametocytes were induced by seeding culture flasks at 2% parasitaemia/4% haematocrit and subjecting them to daily medium changes for 14 days whilst maintaining a temperature of 37°C at all times. On Day 14, the maturity of gametocytes was assessed by quantifying male gametogenesis (exflagellation). A 20 μl sample of gametocyte culture was mixed with equal volume of ookinete medium (complete culture medium supplemented with 0.1 μM xanthurenic acid) at room temperature and transferred to a haemocytometer. After 20 min at room temperature, exflagellation was accurately quantified as described in Delves et al. 2016 [17].
The Pf DGFA was performed as described in Delves et al. 2016 [17]. […] Plates were then incubated for 24 h at 37°C in a humidified box under a 1% O2/3% CO2/96% N2 gas mix. Gametogenesis was triggered by addition of 10 μl per well of ookinete medium + 0.27 μg ml^-1 Cy3-labelled anti-Pfs25 antibody. Plates were incubated on a metal block at 4°C for 4 min to ensure even cooling, then 28°C for a further 4 min. Exflagellation was recorded by capturing 10 frames over 1 s under brightfield illumination using a x4 objective with a 1.5x zoom (effectively x6) attached to an automated Nikon Ti fluorescence microscope. After recording exflagellation, plates were incubated for a further 24 h in the dark at 28°C to ensure maximal expression of Pfs25 by female gametes. The plates were then returned to the microscope and female gametes imaged at x6 using fluorescence microscopy.
Exflagellation centres and female gametes were quantified using custom image analysis pipelines developed within ICY Bioimage Analysis (https://icy.bioimageanalysis.org/).

Assay [2] concerns P. falciparum female gametocytes. The assay can be described thus: P. falciparum Dual Gamete Formation Assay (PfDGFA), female readout (Pfs25-positive female gametes). Conditions: for % inhibition female (individual replicates) R1: replicate R1; for % inhibition female (individual replicates) R3: replicate R3; for % inhibition female (individual replicates) R4: replicate R4; for Average inhibition female (%): average of replicates. The assay is classed as cell-based, Plasmodium falciparum NF54. Summed up:
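Male and female gamete formation were quantified by microscopy image analysis following 24 h incubation of mature NF54 gametocytes with compound and activation at 28°C with xanthurenic acid.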

Setting [3] is: PfDGFA at 2µM, 24h preincubation with gametocytes prior to induction of gametogenesis.
Where [4] appears, read: PfDGFA at 2µM, 24h preincubation.
The mark [5] stands for this setting: 2µM, 24h preincubation with gametocytes prior to induction of gametogenesis.
Setting [6] is: 2µM, 24h preincubation, hits selected on >50% inhibition in the male readout across replicates.
Setting [7] is: 2µM, 24h preincubation, hits selected on >50% inhibition in the female readout across replicates.
Setting [8] is: 2µM, 24h preincubation, number of replicates with >50% inhibition in the male readout.
Setting [9] is: 2µM, 24h preincubation, number of replicates with >50% inhibition in the female readout.

As to `Cl.NC1=NC(CCc2ccccc2)N(c2ccc(Cl)cc2)C(N)=N1` (stereo not drawn) [TCMDC-131290], in assay [1] (setting [3]), the “% inhibition male (individual replicates) R1” value was -21.3%, the “% inhibition male (individual replicates) R3” value is -9.1% and the “% inhibition male (individual replicates) R4” value was -39.8%. Moreover, the “Average inhibition male (%)” value in assay [1] (setting [4]) was -16.9%. Moreover, in assay [2] (setting [3]), the “% inhibition female (individual replicates) R1” value was determined as 1.0%, the “% inhibition female (individual replicates) R3” value was -2.9% and the “% inhibition female (individual replicates) R4” value was -19.8%. Further, in assay [2] (setting [4]), the “Average inhibition female (%)” value is -10.7%.

`Br.CCCC1N=C(N)N=C(N)N1c1ccc(CC)cc1` (stereo not drawn) [TCMDC-131300]: in assay [1] (setting [5]), the “Average inhibition male (%)” value is -2.2%, the “% inhibition male (individual replicates) R1” value is given as 7.1%, the “% inhibition male (individual replicates) R3” value amounted to 2.2% and the “% inhibition male (individual replicates) R4” value was -35.1%. This molecule also gave a HitlevelM in assay [1] (setting [6]) of 0. This molecule yielded an Activity in assay [1] (setting [4]) of 0. Further, in assay [2] (setting [5]), the “Average inhibition female (%)” value is 5.7%, the “% inhibition female (individual replicates) R1” value was 16.1%, the “% inhibition female (individual replicates) R3” value is 10.4% and the “% inhibition female (individual replicates) R4” value is 12.0%. Moreover, the HitlevelF in assay [2] (setting [7]) is 0.

Take `CNCCCCCCOc1ccc(CC(C)NCC(O)c2cccc(C(F)(F)F)c2)cc1.Cl` (stereo not drawn) [TCMDC-131523]: in assay [1] (setting [3]), the “% inhibition male (individual replicates) R1” value is 2.8%, the “% inhibition male (individual replicates) R3” value is given as -13.3% and the “% inhibition male (individual replicates) R4” value was 4.2%. In addition, the “Average inhibition male (%)” value in assay [1] (setting [4]) is listed as -0.8%. Besides, in assay [2] (setting [3]), the “% inhibition female (individual replicates) R1” value was 10.7%, the “% inhibition female (individual replicates) R3” value was -17.9% and the “% inhibition female (individual replicates) R4” value stood at 1.1%. Besides, in assay [2] (setting [4]), the “Average inhibition female (%)” value is given as -0.7%.

As to `C[C@H](Cc1ccc(OCCNC[C@H](O)c2cccc(Cl)c2)cc1)NC[C@H](O)c1ccc(Cl)c(Cl)c1.O` [TCMDC-131547], in assay [1] (setting [5]), the “Average inhibition male (%)” value was found to be 22.6%, the “% inhibition male (individual replicates) R1” value turned out to be 62.1%, the “% inhibition male (individual replicates) R3” value was 23.6% and the “% inhibition male (individual replicates) R4” value was 9.5%. For the same molecule, the HitlevelM in assay [1] (setting [6]) stood at 1. In assay [1] (setting [4]), this molecule returned an Activity of 0. Moreover, in assay [2] (setting [5]), the “Average inhibition female (%)” value was 17.7%, the “% inhibition female (individual replicates) R1” value turned out to be 20.3%, the “% inhibition female (individual replicates) R3” value is listed as 33.9% and the “% inhibition female (individual replicates) R4” value is recorded as 3.3%. Also, the HitlevelF in assay [2] (setting [7]) is on record as 0.

Consider `C[C@H](Cc1ccc(S(=O)(=O)c2ccc(C[C@@H](C)NC[C@H](O)c3cccc(Cl)c3)cc2)cc1)NC[C@H](O)c1cccc(Cl)c1.Cl` [TCMDC-131561], for which, in assay [1] (setting [5]), the “Average inhibition male (%)” value was found to be 47.9%, the “% inhibition male (individual replicates) R1” value is reported as 47.0%, the “% inhibition male (individual replicates) R3” value was 11.1% and the “% inhibition male (individual replicates) R4” value was 74.2%. For the same molecule, the HitlevelM in assay [1] (setting [8]) amounted to 2. For the same molecule, in assay [2] (setting [5]), the “Average inhibition female (%)” value came to 28.9%, the “% inhibition female (individual replicates) R1” value worked out at 27.9%, the “% inhibition female (individual replicates) R3” value is recorded as 9.1% and the “% inhibition female (individual replicates) R4” value amounted to 30.5%. The molecule further registered a HitlevelF in assay [2] (setting [9]) of 0.

On to `CC1(C)N=C(NC(=O)c2ccc([N+](=O)[O-])cc2)N=C(N)N1OCc1ccc2ccccc2c1` [TCMDC-131580], for which, in assay [1] (setting [3]), the “% inhibition male (individual replicates) R1” value is given as 21.0%, the “% inhibition male (individual replicates) R3” value was -18.0% and the “% inhibition male (individual replicates) R4” value is -29.1%. For the same molecule, the “Average inhibition male (%)” value in assay [1] (setting [4]) is on record as -7.9%. Moreover, in assay [2] (setting [3]), the “% inhibition female (individual replicates) R1” value worked out at 12.5%, the “% inhibition female (individual replicates) R3” value was -19.7% and the “% inhibition female (individual replicates) R4” value came to 0.76%. In addition, the “Average inhibition female (%)” value in assay [2] (setting [4]) amounted to 3.4%.

For `CC1(C)N=C(N)N=C(N)N1OCc1cc(Cl)c(CON2C(N)=NC(N)=NC2(C)C)cc1Cl` [TCMDC-131624], in assay [1] (setting [3]), the “% inhibition male (individual replicates) R1” value stood at 2.1% and the “% inhibition male (individual replicates) R4” value is -25.6%. Moreover, in assay [1] (setting [4]), the “Average inhibition male (%)” value is recorded as -4.5%. Moreover, in assay [2] (setting [3]), the “% inhibition female (individual replicates) R1” value was 0.3%, the “% inhibition female (individual replicates) R3” value came out at 11.6% and the “% inhibition female (individual replicates) R4” value was 5.2%. In addition, in assay [2] (setting [4]), the “Average inhibition female (%)” value came to 2.9%.

As for `Cc1ccc(CON2C(N)=NC(N)=NC2(C)C)c(Cl)c1.Cc1ccc(CON2C(N)=NC(N)=NC2(C)C)cc1Cl` [TCMDC-131625], in assay [1] (setting [3]), the “% inhibition male (individual replicates) R1” value turned out to be 26.3%, the “% inhibition male (individual replicates) R3” value is -30.0% and the “% inhibition male (individual replicates) R4” value is -18.5%. The “Average inhibition male (%)” value in assay [1] (setting [4]) is -5.6%. Also, in assay [2] (setting [3]), the “% inhibition female (individual replicates) R1” value was -4.8%, the “% inhibition female (individual replicates) R3” value is recorded as -23.0% and the “% inhibition female (individual replicates) R4” value is on record as 21.6%. For the same molecule, the “Average inhibition female (%)” value in assay [2] (setting [4]) is reported as -0.55%.

Turning to `CC(=O)c1ccc(NC(=O)NNC(=O)c2ccc(CCN3CCC(c4nc(COCC(F)(F)F)c(-c5ccc(F)cc5)o4)CC3)cc2)cc1` [TCMDC-131905], in assay [1] (setting [3]), the “% inhibition male (individual replicates) R1” value came to 1.3%, the “% inhibition male (individual replicates) R3” value worked out at 7.6% and the “% inhibition male (individual replicates) R4” value is listed as 18.2%. Moreover, the “Average inhibition male (%)” value in assay [1] (setting [4]) is 9.5%. Besides, in assay [2] (setting [3]), the “% inhibition female (individual replicates) R1” value was 5.8%, the “% inhibition female (individual replicates) R3” value is reported as -31.0% and the “% inhibition female (individual replicates) R4” value was 36.9%. The “Average inhibition female (%)” value in assay [2] (setting [4]) was determined as 3.6%.

As for `COc1cc2ncnc(Nc3ccc(OCc4ccccc4)c(OCc4ccccc4)c3)c2cc1OC.Cl` [TCMDC-131922], in assay [1] (setting [5]), the “Average inhibition male (%)” value was 5.7%, the “% inhibition male (individual replicates) R1” value stood at 10.5%, the “% inhibition male (individual replicates) R3” value amounted to 8.7% and the “% inhibition male (individual replicates) R4” value was found to be 6.9%. For the same molecule, in assay [1] (setting [6]), the HitlevelM is given as 0. In addition, the Activity in assay [1] (setting [4]) amounted to 0. In assay [2] (setting [5]), the “Average inhibition female (%)” value is on record as 10.3%, the “% inhibition female (individual replicates) R1” value was 5.3%, the “% inhibition female (individual replicates) R3” value came to 31.5% and the “% inhibition female (individual replicates) R4” value turned out to be 4.3%. The same molecule yielded a HitlevelF in assay [2] (setting [7]) of 0.

On to `Nc1nc(N)c2c(ccc3c2cnn3Cc2cccnc2)n1` [TCMDC-131932], for which, in assay [1] (setting [5]), the “Average inhibition male (%)” value is on record as 12.5%, the “% inhibition male (individual replicates) R1” value is on record as 4.3%, the “% inhibition male (individual replicates) R3” value came to 31.7% and the “% inhibition male (individual replicates) R4” value is 1.1%. Moreover, the HitlevelM in assay [1] (setting [8]) amounted to 0. Besides, in assay [2] (setting [5]), the “Average inhibition female (%)” value worked out at 18.1%, the “% inhibition female (individual replicates) R1” value worked out at 3.3%, the “% inhibition female (individual replicates) R3” value came to 58.3% and the “% inhibition female (individual replicates) R4” value is 1.8%. In assay [2] (setting [9]), this molecule had a HitlevelF of 1.

`COc1ccc2nc(Nc3nc4cnccc4[nH]3)sc2c1` [TCMDC-131950]: in assay [1] (setting [5]), the “Average inhibition male (%)” value is reported as -15.4%, the “% inhibition male (individual replicates) R1” value was -6.4%, the “% inhibition male (individual replicates) R3” value was -26.4% and the “% inhibition male (individual replicates) R4” value is -8.5%. In addition, the HitlevelM in assay [1] (setting [6]) amounted to 0. For the same molecule, the Activity in assay [1] (setting [4]) was 0. Also, in assay [2] (setting [5]), the “Average inhibition female (%)” value was 7.4%, the “% inhibition female (individual replicates) R1” value was determined as 12.1%, the “% inhibition female (individual replicates) R3” value is -4.5% and the “% inhibition female (individual replicates) R4” value was 3.8%. The same molecule came in with a HitlevelF in assay [2] (setting [7]) of 0.
